What all share (test): NCI anticancer screen, dose series, 48 h
Assay [1] deals with IGROV1 ovarian.
The test system of assay [2] is TK-10 renal.
The subject of assay [3] is NCI-H460 lung.
For assay [4], the system named is UACC-257 melanoma.
Assay [5] concerns RXF 393 renal.
In assay [6] the test system is M14 melanoma.
Assay [7] deals with OVCAR-3 ovarian.
Assay [8] relates to SK-MEL-28 melanoma.
Assay [9] deals with SNB-19 CNS.
Assay [10] deals with DU-145 prostate.

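Test compounds were applied to cells in 96-well plates for 48 hours at 5 doses. The concentration for 50% growth inhibition is given as GI50. Definition used: TGI = concentration required for complete inhibition of growth.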

Take `O=C(Nc1ccc(-c2nc(-c3cccc(OCCN4CCOCC4)c3)c(-c3ccnc(Br)c3)[nH]2)cc1)c1ccccc1`: the GI50 in [1] was 4.61 µM; in [2] it was 4.48 µM; in assay [3] it was 2.81 µM; in assay [4], 2.23 µM; in assay [5], 0.309 µM; in assay [6], 1.8 µM. The GI50 in assay [7] is 4.27 µM; in assay [8] it was 1.5 µM; in assay [9] it was 2.19 µM; in [10] it was 6.74 µM. In addition, the TGI was more than 100 µM in assay [1]; more than 100 µM in assay [2]; 9.3 µM in assay [3]; 6.36 µM in assay [4]; 1.12 µM in assay [5]; 4.36 µM in assay [6]. Also, the TGI was more than 100 µM in assay [7], 3.94 µM in assay [8], 9.07 µM in [9] and more than 100 µM in assay [10].

For `C=C1C(=O)OC2CC(C)C3CC(O)OC(OCC)C3(C)CC12` (centres undefined), the TGI in assay [1] amounted to 48.1 µM; in [2], 45.2 µM; in [3] it was 38.6 µM; in [4] it was 31.5 µM; in [5] it was 28.3 µM; in assay [6], 28.5 µM. In addition, the TGI in assay [7] was 31.3 µM; in [8], 27.5 µM; in assay [9], more than 75.5 µM; in assay [10], more than 100 µM.

Take `CCCCCC[C@H](C)Nc1nc2ccccc2c2occc12`: the GI50 is 0.787 µM in [1]; 6.46 µM in [2]; more than 100 µM in assay [3]; 3.24 µM in [4]; 12.6 µM in assay [5]; 7.88 µM in assay [6]. For the same molecule, the GI50 in assay [7] was 6.27 µM; in [8] it was 21.2 µM; in [9], 29.7 µM; in assay [10], 3.34 µM. Besides, the TGI in assay [1] is 13.2 µM; in [2], 20.9 µM; in assay [3] it was more than 100 µM; in [4] it was 16.3 µM; in assay [5], 30.6 µM; in [6] it was 20.8 µM. Moreover, the TGI in assay [7] is 24.3 µM; in assay [8], 47.2 µM; in assay [9], more than 100 µM; in [10], 14 µM.

With `COc1ccc(C(O)c2cc3c(N)c(C(=O)Nc4cccc(Cl)c4)sc3nc2C)cc1` (centres undefined), the GI50 is 2.52 µM in assay [1]; 1.06 µM in [3]; 8.6 µM in assay [4]; 0.31 µM in [5]; 0.731 µM in assay [6]; 0.843 µM in assay [7]. The GI50 was 1.23 µM in [8], 1.47 µM in assay [9] and 1.16 µM in assay [10]. For the same molecule, the TGI is more than 56 µM in [1]; more than 50.3 µM in assay [2]; 5.53 µM in assay [3]; 81 µM in [4]; 1.76 µM in [5]; more than 36.5 µM in assay [6]. The TGI was 2.34 µM in [7], 55 µM in assay [8], more than 46.8 µM in [9] and more than 22 µM in [10].

Turning to `CCN(c1cc(-c2ccc(CN3CCOCC3)cc2)cc(C(=O)NCc2c(C)cc(C)[nH]c2=O)c1C)C1CCOCC1`, the GI50 in [1] was 30.3 µM; in assay [2], 25.2 µM; in [3], 25.5 µM; in assay [4] it was 16.2 µM; in assay [5] it was 16.5 µM; in assay [6], 19.9 µM. Besides, the GI50 was 25 µM in assay [7], 20.5 µM in assay [8], 37.4 µM in [9] and 40.6 µM in assay [10]. Also, the TGI in assay [1] is more than 63 µM; in [2] it was more than 73.6 µM; in [3], more than 66.8 µM; in [4], 33.5 µM; in [5], 44.7 µM; in assay [6], 42.3 µM. The TGI is more than 54.6 µM in assay [7], 47.7 µM in assay [8], more than 84.5 µM in assay [9] and more than 100 µM in assay [10].

As for `Cc1nc2ccc(NC(=O)CCNC(=O)CCCc3ccc(CC(C(=O)O)C(=O)O)cc3)cc2s1`, the GI50 in assay [1], in assay [2], in assay [3], in [4], in assay [5] and in assay [6] was more than 100 µM in each case. Further, the GI50 in assay [7], in [8], in assay [9] and in assay [10] was more than 100 µM in each case. The TGI in assay [1], in [2], in assay [3], in assay [4], in assay [5] and in assay [6] was more than 100 µM in each case. The TGI in assay [7], in assay [8], in [9] and in assay [10] was more than 100 µM throughout.

Take `CN(C)CCSS(=O)(=O)O`: the TGI in assay [1] was more than 100 µM; in [2], more than 100 µM; in assay [3] it was 34.7 µM; in assay [5] it was more than 100 µM; in [6] it was more than 100 µM; in [7], more than 100 µM. Besides, the TGI in assay [8], in [9] and in assay [10] was more than 100 µM throughout.

As to `Cc1nc2c(n1C)C(=O)c1ccccc1C2=O`, the GI50 in assay [1] was 31.3 µM; in [2], more than 100 µM; in assay [3] it was 18 µM; in assay [4] it was 29.4 µM; in [6] it was 43 µM; in assay [7], 25.2 µM. In addition, the GI50 in assay [8] is more than 100 µM; in assay [9], 91.3 µM; in [10], 51.3 µM. The TGI is more than 100 µM in assay [1]; more than 100 µM in assay [2]; more than 100 µM in assay [3]; more than 100 µM in assay [4]; more than 100 µM in assay [6]; 68.6 µM in [7]. Also, the TGI in assay [8], in assay [9] and in assay [10] was more than 100 µM each time.

Consider `COc1cc(C)c(C2NC(=O)c3ccccc3N2)cc1C` (centres undefined), for which the TGI in [1] was more than 100 µM; in [2], more than 100 µM; in assay [3] it was 26.5 µM; in assay [4], more than 100 µM; in assay [5], 8.61 µM; in assay [6], 8.54 µM. Moreover, the TGI in assay [7] was 0.518 µM; in [8] it was more than 100 µM; in [10] it was 11.6 µM.

In the case of `Cc1ccc(N=Nc2c(O)ccc3ccccc23)cc1`, the TGI in [1], in assay [2], in assay [4], in [5], in [6] and in assay [7] was more than 100 µM in each case. Also, the TGI in [8], in [9] and in assay [10] was more than 100 µM throughout.

In the case of `COC(=O)COc1ccc(/C=C2/N=C(c3ccccc3)N(c3c(C)n(C)n(-c4ccccc4)c3=O)C2=O)cc1`, the GI50 in [1] was 23.6 µM; in [2], 18.5 µM; in assay [3] it was 26 µM; in assay [5], 19.4 µM; in [6] it was 32.5 µM; in assay [7], 16.6 µM. Also, the GI50 in [8] was 16.8 µM; in [9], 36.3 µM; in assay [10] it was 16.6 µM. The TGI in assay [1] was 42.3 µM; in assay [2], 34.1 µM; in assay [3], more than 100 µM; in assay [5], 36.5 µM; in assay [6], more than 100 µM; in assay [7], 30.7 µM. In addition, the TGI in assay [8] is 30.9 µM; in assay [9], more than 100 µM; in assay [10], 30.2 µM.

On to `Cc1cc(N=C2C=C(Br)C(=O)C(Br)=C2)cc(CN(CC(=O)O)CC(=O)O)c1O`, for which the TGI in assay [1], in assay [3], in [4], in assay [5], in assay [6] and in assay [7] was more than 100 µM each time. In addition, the TGI in [8], in assay [9] and in assay [10] was more than 100 µM each time.

Consider `O=c1[nH]c2ccccc2n1CCCN1CCC(n2c(=O)[nH]c3cc(Cl)ccc32)CC1`, for which the TGI was found to be 41.3 µM in assay [1]; 39.4 µM in assay [2]; 32.2 µM in assay [3]; 30.6 µM in [4]; 29.9 µM in [5]; 29.9 µM in assay [6]. Also, the TGI in [7] turned out to be 38.9 µM; in [8], 31.1 µM; in assay [10], 39.2 µM.

As for `Cc1ccc(S(=O)(=O)c2nc(-c3ccccc3)oc2S(C)=O)cc1` (centres undefined), the GI50 in assay [2] is 1.45 µM; in assay [3] it was 2.92 µM; in assay [4], 1.58 µM; in [5], 1.46 µM; in [6], 1.59 µM; in assay [7], 1.03 µM. Further, the GI50 in assay [8] is 1.95 µM; in [9], 3.35 µM; in assay [10] it was 1.25 µM. For the same molecule, the TGI in [2] turned out to be 2.79 µM; in [3], 8.98 µM; in [4] it was 3.11 µM; in assay [5] it was 2.87 µM; in assay [6], 3.25 µM; in [7], 2.35 µM. Moreover, the TGI was 3.5 µM in assay [8], 11.2 µM in [9] and 2.63 µM in [10].

As to `Cc1nn2c(/C=C3/C(=O)Nc4cc(Cl)ccc43)c(-c3ccccc3)nc2s1`, the GI50 in assay [1] is 2.07 µM; in [2] it was 2.34 µM; in assay [3] it was 3.72 µM; in assay [4], 2.65 µM; in [5], 2.27 µM; in assay [6] it was 6.54 µM. In addition, the GI50 in assay [7] is 1.89 µM; in assay [9], 10.7 µM; in assay [10], 4.02 µM. Also, the TGI is 4.62 µM in assay [1]; 4.14 µM in assay [2]; more than 100 µM in assay [3]; 8.32 µM in [4]; 5.97 µM in assay [5]; more than 100 µM in assay [6]. The values for the TGI in [7], in assay [9] and in assay [10] were 3.68 µM, more than 100 µM and 18.2 µM, respectively.

Consider `O=C(NCCc1ccccn1)OCc1nc2nc(Cl)nc(N3CCOCC3)c2[nH]1`, for which the GI50 in assay [1] was 1.57 µM; in assay [2], 1.94 µM; in assay [3], 3.12 µM; in assay [4], 1.87 µM; in assay [5], 1.12 µM; in assay [7], 1.26 µM. The GI50 in assay [8] is 1.67 µM; in [9], 4.58 µM; in assay [10], 1.57 µM. The TGI in assay [1] is 2.98 µM; in [2] it was 4 µM; in assay [3] it was 11.1 µM; in assay [4] it was 5.26 µM; in [5], 2.4 µM; in [7] it was 2.73 µM. Further, the TGI in assay [8] stood at 3.32 µM; in assay [9], 16.5 µM; in [10] it was 3.04 µM.

In the case of `NCCOCCOCCNc1nc(-c2ccc(Cl)cc2)nc(N2CCN(c3ccccn3)CC2)n1`, the GI50 in assay [1] is 2.81 µM; in [4], 1.87 µM; in [5] it was 2.28 µM; in assay [7] it was 2.74 µM; in assay [8] it was 1.74 µM; in assay [10] it was 2.17 µM. Moreover, the TGI in assay [1] amounted to 7.04 µM; in [4] it was 3.55 µM; in assay [5], 5.76 µM; in [7], 6.76 µM; in [8], 3.23 µM; in [10], 4.51 µM.

Consider `Cc1nc(Nc2ccccn2)sc1C(=O)/C=C/c1ccc(Cl)cc1`, for which the GI50 in assay [1] is 0.413 µM; in assay [2] it was 1.09 µM; in assay [3] it was 0.353 µM; in assay [4], 22.8 µM; in assay [6] it was 0.342 µM; in assay [7], 0.325 µM. Further, the GI50 in assay [8] was 2.19 µM; in assay [9] it was 0.556 µM; in [10], 0.383 µM. Moreover, the TGI in assay [1] is 30.6 µM; in assay [2], 24.4 µM; in [3] it was more than 100 µM; in assay [4], more than 100 µM; in assay [6], more than 67.1 µM; in assay [7] it was 5.48 µM. Besides, the results for the TGI in [8], in [9] and in [10] were more than 100 µM, more than 100 µM and more than 71.5 µM, respectively.

Source of the values: PubChem BioAssay (NCI).
